Experimental data published in PMC10892019, “Molecular Characterization of Plant Volatile Compound Interactions with Cnaphalocrocis medinalis Odorant-Binding Proteins” (Plants, 2024).
Read-outs that look alike come from different tables or passages of the source.

Assays:
CmedGOBP2 = CmedGOBP2 (Cnaphalocrocis medinalis, UniProt H9XFD1); assay: Fluorescence competitive binding assay (1-NPN) with CmedGOBP2
Description: (§1) The method for fluorescence competition binding was the same as that described by Zeng et al. (2018). The fluorescent probe N-phenyl-1-naphthylamine (1-NPN) (Sangon Biotech, Shanghai, China) and phenylacetaldehyde, benzyl acetate, 1-heptanol, and hexanal (Aladdin, Shanghai, China) were diluted to 100 mM stocks in chromatographic-grade methanol and stored at −20 °C. Working solutions of 1 mM 1-NPN and each odorant were made up in methanol. Each CmedOBP solution was diluted in 1 mM Tris-HCl buffer to a final concentration of 2 μM.
(§2) The RF5301PC fluorescence spectrophotometer (Shimadzu, Japan) was operated at an excitation wavelength of 337 nm and an emission wavelength of 405 nm (with excitation and emission slits of 5 nm and 10 nm, respectively). For each protein solution, 2 mL of diluted protein was added to the quartz cuvette, then 4 μL aliquots of 1-NPN solution were added at 2 min intervals to bring the final concentration of the probe to 2 μM. After the fluorescence intensity was stable, the maximum fluorescence value was recorded. The 1 mM volatile samples dissolved in methanol were then added to a final concentration of 20 μM. After 2 min, when the fluorescence value no longer fluctuated, the maximum fluorescence value was recorded. Each odor sample was tested in three technical replicates.
(§3) The binding ability of each protein to each odorant was determined by plotting the fluorescence intensity against the ligand concentration. Trend lines were linearized with the Scatchard method, then used to calculate the half-maximal inhibition concentration (IC50) of the ligand. The competition constant was calculated from the IC50 value as follows: Ki = [IC50]/(1 + [1-NPN]/K1-NPN) where 1-NPN is the concentration of free 1-NPN, and K1-NPN is the dissociation constant of the CmedOBP/[1-NPN] complex. The dissociation constant (Ki) was inversely correlated with the binding force between the protein and the odorant. At Ki > 50 μmol/L, the protein was considered to have no binding force with the volatile; at 20 μmol/L < Ki < 50 μmol/L, the protein was considered to have a weak binding force with the volatile; and at 0 μmol/L < Ki < 20 μmol/L, the protein was considered to have a strong binding force with the analyzed volatile.

CmedOBP6 = CmedOBP6 (Cnaphalocrocis medinalis, UniProt A0A0U3C2E7); assay: Fluorescence competitive binding assay (1-NPN) with CmedOBP6
Description: as §1, §2, §3

CmedPBP2 = CmedPBP2 (Cnaphalocrocis medinalis, UniProt M4YHW5); assay: Fluorescence competitive binding assay (1-NPN) with CmedPBP2
Description: as §1, §2, §3

CmedOBP15 = CmedOBP15 (Cnaphalocrocis medinalis, UniProt A0A0U3C6L3); assay: Fluorescence competitive binding assay (1-NPN) with CmedOBP15
Description: as §1, §2, §3

CmedGOBP1 = CmedGOBP1 (Cnaphalocrocis medinalis, UniProt H9XFD0); assay: Fluorescence competitive binding assay (1-NPN) with CmedGOBP1
Description: as §1, §2, §3

CmedOBP1 = CmedOBP1 (Cnaphalocrocis medinalis, UniProt H9XFD2); assay: Fluorescence competitive binding assay (1-NPN) with CmedOBP1
Description: as §1, §2, §3

CmedOBP26 = CmedOBP26 (Cnaphalocrocis medinalis, UniProt A0A1P8SKA7); assay: Fluorescence competitive binding assay (1-NPN) with CmedOBP26
Description: as §1, §2, §3

SaveOBP9 = target: SaveOBP9; design: method as in PMID 33172024; settings: SaveOBP9, strong binding force; cited from earlier work
[1] = CmedGOBP2 2 μM, 1-NPN probe 2 μM, calculated from IC50, read-out: Ki
[2] = CmedGOBP2 2 μM, 1-NPN probe 2 μM, read-out: IC50
[3] = CmedOBP6 2 μM, 1-NPN probe 2 μM, calculated from IC50, read-out: Ki
[4] = CmedOBP6 2 μM, 1-NPN probe 2 μM, read-out: IC50
[5] = CmedPBP2 2 μM, 1-NPN probe 2 μM, calculated from IC50, read-out: Ki
[6] = CmedPBP2 2 μM, 1-NPN probe 2 μM, read-out: IC50
[7] = CmedOBP15 2 μM, 1-NPN probe 2 μM, calculated from IC50, read-out: Ki
[8] = CmedOBP15 2 μM, 1-NPN probe 2 μM, read-out: IC50
[9] = CmedGOBP1 2 μM, 1-NPN probe 2 μM, calculated from IC50, read-out: Ki
[10] = CmedGOBP1 2 μM, 1-NPN probe 2 μM, read-out: IC50
[11] = CmedOBP1 2 μM, 1-NPN probe 2 μM, calculated from IC50, read-out: Ki
[12] = CmedOBP1 2 μM, 1-NPN probe 2 μM, read-out: IC50
[13] = CmedOBP26 2 μM, 1-NPN probe 2 μM, calculated from IC50, read-out: Ki
[14] = CmedOBP26 2 μM, 1-NPN probe 2 μM, read-out: IC50
[15] = Ki, CmedOBP15 2 μM, 1-NPN probe 2 μM, calculated from IC50
[16] = Ki, CmedOBP1 2 μM, 1-NPN probe 2 μM, calculated from IC50

CmedPBP2, sequence (M4YHW5 entry or part of it): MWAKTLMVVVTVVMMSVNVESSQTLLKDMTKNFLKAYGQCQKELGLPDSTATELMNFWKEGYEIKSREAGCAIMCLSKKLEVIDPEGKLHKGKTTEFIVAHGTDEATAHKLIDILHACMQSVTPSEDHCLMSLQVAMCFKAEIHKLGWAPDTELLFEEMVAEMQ
CmedOBP1, sequence (H9XFD2 entry or part of it): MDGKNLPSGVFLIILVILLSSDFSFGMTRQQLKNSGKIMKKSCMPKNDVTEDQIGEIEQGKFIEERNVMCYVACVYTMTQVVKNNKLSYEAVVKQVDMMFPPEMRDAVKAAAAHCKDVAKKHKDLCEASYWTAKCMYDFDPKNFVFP
CmedOBP26, sequence (A0A1P8SKA7 entry or part of it): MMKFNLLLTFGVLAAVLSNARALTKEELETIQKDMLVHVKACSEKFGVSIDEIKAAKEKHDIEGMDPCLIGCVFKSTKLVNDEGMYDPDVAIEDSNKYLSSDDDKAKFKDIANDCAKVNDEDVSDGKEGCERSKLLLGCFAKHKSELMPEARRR
CmedOBP6, sequence (A0A0U3C2E7 entry or part of it): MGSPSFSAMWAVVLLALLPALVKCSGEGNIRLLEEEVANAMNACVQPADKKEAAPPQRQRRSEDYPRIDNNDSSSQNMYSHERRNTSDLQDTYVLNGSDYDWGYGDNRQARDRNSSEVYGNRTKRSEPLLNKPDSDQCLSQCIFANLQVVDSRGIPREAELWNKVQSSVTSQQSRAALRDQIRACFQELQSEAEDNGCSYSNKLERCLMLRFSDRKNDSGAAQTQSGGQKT
CmedOBP15, sequence (A0A0U3C6L3 entry or part of it): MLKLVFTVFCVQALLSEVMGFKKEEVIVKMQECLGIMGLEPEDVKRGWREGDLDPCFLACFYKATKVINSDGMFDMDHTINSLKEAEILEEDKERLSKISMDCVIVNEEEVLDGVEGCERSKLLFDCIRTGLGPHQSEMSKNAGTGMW
CmedGOBP1, sequence (H9XFD0 entry or part of it): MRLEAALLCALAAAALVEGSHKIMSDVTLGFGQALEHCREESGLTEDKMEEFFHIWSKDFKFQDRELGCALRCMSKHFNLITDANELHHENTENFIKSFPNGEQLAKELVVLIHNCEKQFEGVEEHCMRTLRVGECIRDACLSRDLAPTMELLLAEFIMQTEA
CmedGOBP2, sequence (H9XFD1 entry or part of it): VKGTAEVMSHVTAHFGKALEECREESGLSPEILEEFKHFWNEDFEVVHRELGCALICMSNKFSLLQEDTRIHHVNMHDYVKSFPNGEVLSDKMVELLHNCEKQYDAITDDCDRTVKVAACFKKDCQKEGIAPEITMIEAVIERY

## CCCCCCCO [1-Heptanol, 1-heptanol]
CmedGOBP2; [1]
  Ki: > 50 µM
CmedGOBP2; [2]
  IC50: 99.7 µM
CmedOBP6; [3]
  Ki: > 50 µM
CmedOBP6; [4]
  IC50: 624 µM
CmedPBP2; [5]
  Ki: > 50 µM
CmedPBP2; [6]
  IC50: 224 µM
CmedOBP15; [7]
  Ki: > 50 µM
CmedOBP15; [8]
  IC50: 290 µM
CmedGOBP1; [9]
  Ki: > 50 µM
CmedGOBP1; [10]
  IC50: 219 µM
CmedOBP1; [11]
  Ki: 12 µM
CmedOBP1; [12]
  IC50: 68.1 µM
CmedOBP1; CmedOBP1, read-out: Ki value
  Ki: < 20 µM
CmedOBP26; [13]
  Ki: 31.9 µM
CmedOBP26; [14]
  IC50: 52.3 µM
CmedOBP26; CmedOBP26, read-out: Ki value
  Ki: 20 to 50 µM

## CC(=O)OCc1ccccc1 [Benzyl Acetate, benzyl acetate]
CmedGOBP2; [1]
  Ki: > 50 µM
CmedGOBP2; [2]
  IC50: 454 µM
CmedOBP6; [3]
  Ki: > 50 µM
CmedOBP6; [4]
  IC50: 558 µM
CmedPBP2; [5]
  Ki: > 50 µM
CmedPBP2; [6]
  IC50: 235 µM
CmedOBP15; [7]
  Ki: 13.6 µM
CmedOBP15; [8]
  IC50: 34.4 µM
CmedOBP15; CmedOBP15, read-out: Ki value
  Ki: < 20 µM
CmedGOBP1; [9]
  Ki: > 50 µM
CmedGOBP1; [10]
  IC50: 223 µM
CmedOBP1; [11]
  Ki: 31.5 µM
CmedOBP1; [12]
  IC50: 179 µM
CmedOBP26; [13]
  Ki: > 50 µM
CmedOBP26; [14]
  IC50: 96.1 µM

## CCCCCC=O [Hexanal, hexanal]
CmedGOBP2
  IC50: 622 µM
  Ki: > 50 µM
CmedOBP6
  IC50: 383 µM
  Ki: > 50 µM
CmedPBP2
  IC50: 155 µM
  Ki: > 50 µM
CmedOBP15
  IC50: 441 µM
CmedOBP15; [15]
  Ki: > 50 µM
CmedGOBP1
  IC50: 249 µM
  Ki: > 50 µM
CmedOBP1
  IC50: 99.2 µM
CmedOBP1; Ki value, CmedOBP1
  Ki: < 20 µM
CmedOBP1; [16]
  Ki: 17.5 µM
CmedOBP26
  IC50: 200 µM
  Ki: > 50 µM

## O=CCc1ccccc1 [Phenylacetaldehyde, phenylacetaldehyde]
CmedGOBP2
  IC50: 123 µM
  Ki: > 50 µM
CmedOBP6
  IC50: 357 µM
  Ki: > 50 µM
CmedPBP2
  IC50: 85.8 µM
  Ki: > 50 µM
CmedOBP15
  IC50: 44.3 µM
CmedOBP15; Ki value, CmedOBP15
  Ki: < 20 µM
CmedOBP15; [15]
  Ki: 17.5 µM
CmedGOBP1
  IC50: 162 µM
  Ki: > 50 µM
CmedOBP1
  IC50: 77.5 µM
CmedOBP1; Ki value, CmedOBP1
  Ki: < 20 µM
CmedOBP1; [16]
  Ki: 13.7 µM
CmedOBP26
  IC50: 458 µM
  Ki: > 50 µM

## CCCCCCCCCC=O [decanal]
SaveOBP9
  Ki: < 10 µM

## CCCCCCCCCCCCCCCC [hexadecane]
SaveOBP9
  Ki: < 10 µM

## CCCCCCCC=O [octanal]
SaveOBP9
  Ki: < 10 µM

## CCCCCCCCCCCCCC [tetradecane]
SaveOBP9
  Ki: < 10 µM
